Some test systems named below: EKVX; OVCAR-8; DMS-114; SW-620; HT-29; CAKI-1; HCC 2998; SNB-75; SK-MEL-28; TK-10; NCI-H226; A498; NCI-H460; RXF 393; U-251; SK-OV-3; SN12C; SF-268; NCI/ADR-RES; Hs-578T.
Holding throughout (assay): DTP human tumour cell line panel, 48 h

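A five-concentration, 48-hour dose response in 96-well plates underlies each endpoint, interpolated linearly between surrounding concentrations. GI50: concentration for 50% inhibition of growth.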 Calls of active or inactive are those of the source. Rule as the data show it: active = GI50 up to about 1.1 µM and inactive = higher. Some results are limits rather than exact numbers.

Regarding `CCOC(=O)C(C)(c1c(C)[nH]c2ccccc12)c1c(C)[nH]c2ccccc12`, the GI50 is 25.5 µM (inactive) with EKVX; 26.8 µM (inactive) with OVCAR-8; 15.7 µM (inactive) in the test with DMS-114; 16.9 µM (inactive) in the test on SW-620; 16.7 µM (inactive) in the test on HT-29; 14.3 µM (inactive) in the test on CAKI-1. In addition, the GI50 is 23.3 µM (inactive) with HCC 2998; 17.6 µM (inactive) in the test on SNB-75; 15.3 µM (inactive) in the test with SK-MEL-28; 18.7 µM (inactive) in the test with TK-10; 13.5 µM (inactive) in the test with NCI-H226; 17.8 µM (inactive) with A498. Further, the GI50 with NCI-H460 was 17.6 µM (inactive); in the test with RXF 393 it was 12.9 µM (inactive); with U-251, 16.9 µM (inactive); in the test with SK-OV-3, 26 µM (inactive).

In the case of `COC1(OC)C2(Cl)C(Cl)=C(Cl)C1(Cl)C1C2C2CC1(C(=O)O)c1ccccc12` (centres undefined), the GI50 in the test with OVCAR-8 is 27.4 µM (inactive); in the test with SN12C, 20.5 µM (inactive); in the test on DMS-114, 17.5 µM (inactive); in the test on SW-620, 18.8 µM (inactive); with SF-268, 27.6 µM (inactive); in the test with HT-29 it was 30.3 µM (inactive). Further, the GI50 in the test with CAKI-1 is 31.3 µM (inactive); in the test on HCC 2998, 22.9 µM (inactive); in the test on SK-MEL-28, 19.4 µM (inactive); in the test on TK-10, 29.1 µM (inactive); in the test with NCI-H226, 26.2 µM (inactive); in the test with A498, 81.1 µM (inactive). The GI50 with NCI-H460 was 20.7 µM (inactive); with U-251, 18.5 µM (inactive); in the test on SK-OV-3, 33.3 µM (inactive).

Consider `COc1ccc(-c2cc(=O)c3c(OC)cccc3o2)c(OC)c1OC`, for which the GI50 in the test with OVCAR-8, in the test on SN12C, in the test on DMS-114, with SW-620, with SF-268 and in the test on HT-29 was > 100 µM (inactive) each time. Further, the GI50 with CAKI-1 was > 100 µM (inactive); with HCC 2998, > 100 µM (inactive); in the test on SNB-75, 19.8 µM (inactive); in the test on SK-MEL-28, > 100 µM (inactive); with TK-10 it was 82 µM (inactive); with NCI-H226, > 100 µM (inactive). Also, the GI50 was > 100 µM (inactive) in the test with A498; > 100 µM (inactive) with NCI-H460; 39 µM (inactive) with RXF 393; > 100 µM (inactive) in the test with U-251; > 100 µM (inactive) in the test on SK-OV-3.

With `COc1ccc2c(c1OC)C1=C(C2=O)c2cc3c(cc2CCN1)OCO3`, the GI50 in the test with EKVX is 46.9 µM (inactive); in the test on OVCAR-8, 39.9 µM (inactive); with SN12C it was 6.76 µM (inactive); in the test on DMS-114, 22.6 µM (inactive); in the test with SW-620 it was 22.5 µM (inactive); with SF-268 it was 41.9 µM (inactive). Also, the GI50 is 18.9 µM (inactive) in the test with HT-29; 27.3 µM (inactive) in the test on CAKI-1; 32.1 µM (inactive) with HCC 2998; 2.74 µM (inactive) with SNB-75; 42.7 µM (inactive) in the test on SK-MEL-28; 54.1 µM (inactive) with TK-10. Further, the GI50 in the test on NCI-H226 is 2.9 µM (inactive); in the test on A498, 55.8 µM (inactive); with NCI-H460, 32.4 µM (inactive); with RXF 393, 42.7 µM (inactive).

With `COC12OCCN(C)C1=CC(=O)C1(C)N=NCC12` (centres undefined), the GI50 with EKVX, in the test on OVCAR-8, with SN12C, with DMS-114, with SW-620 and with HT-29 was > 100 µM (inactive) in each case. Further, the GI50 in the test with CAKI-1, with HCC 2998, in the test on SNB-75, with SK-MEL-28, in the test on TK-10 and with NCI-H226 was > 100 µM (inactive) in each case. In addition, the GI50 in the test on A498, in the test on NCI-H460, in the test with RXF 393, in the test on U-251 and in the test with SK-OV-3 was > 100 µM (inactive) throughout.

In the case of `C=C1c2[nH]c3c([N+](=O)[O-])c(OC)ccc3c2CCN1C(C)=O`, the GI50 was > 100 µM (inactive) in the test on EKVX; > 100 µM (inactive) in the test with OVCAR-8; > 100 µM (inactive) in the test on SN12C; > 100 µM (inactive) in the test with DMS-114; > 100 µM (inactive) with SW-620; 28.7 µM (inactive) in the test with SF-268. Also, the GI50 was > 100 µM (inactive) with HT-29; 21.6 µM (inactive) with CAKI-1; > 100 µM (inactive) with HCC 2998; 25 µM (inactive) in the test with SNB-75; > 100 µM (inactive) with SK-MEL-28; > 100 µM (inactive) with TK-10. Further, the GI50 in the test with NCI-H226, with A498, in the test with NCI-H460, in the test with RXF 393 and with U-251 was > 100 µM (inactive) throughout.

As to `CC(O[Si](C)(C)C)C1C=CC(C)n2c(=O)n(-c3ccccc3)c(=O)n21` (centres undefined), the GI50 in the test with EKVX is > 100 µM (inactive); with OVCAR-8, > 100 µM (inactive); with DMS-114 it was > 100 µM (inactive); with SF-268, < 0.01 µM (active); with HT-29, > 100 µM (inactive); with CAKI-1 it was > 100 µM (inactive). Besides, the GI50 in the test with HCC 2998, in the test with SK-MEL-28, with TK-10, in the test on RXF 393, in the test with U-251 and in the test with SK-OV-3 was > 100 µM (inactive) throughout.

As to `CCCCc1c2c(nc3c1CCc1cc4cc5c(nc4nc1-3)-c1nc3c(c(CCCC)c1CC5)CCCC3)CCCC2`, the GI50 with EKVX was 12.5 µM (inactive); in the test on OVCAR-8, 39.6 µM (inactive); in the test with SN12C, 56.4 µM (inactive); in the test with DMS-114, 26.8 µM (inactive); in the test on SW-620, 40 µM (inactive); with SF-268, 39.3 µM (inactive). Also, the GI50 with HT-29 is 7.28 µM (inactive); in the test on HCC 2998, 62.2 µM (inactive); in the test with SNB-75 it was 49.9 µM (inactive); in the test with SK-MEL-28, 69.5 µM (inactive); with TK-10 it was 26.9 µM (inactive); in the test on NCI-H226, 19.4 µM (inactive). Further, the GI50 was 47.1 µM (inactive) with NCI-H460, 6.56 µM (inactive) with RXF 393, 31.8 µM (inactive) in the test on U-251 and 36.5 µM (inactive) in the test on SK-OV-3.

For `CCOc1cc[n+]([C-](C#N)C#N)cc1`, the GI50 with EKVX, in the test with OVCAR-8, in the test on SN12C, in the test on DMS-114, in the test with SW-620 and in the test on SF-268 was > 100 µM (inactive) in each case. Further, the GI50 in the test with HT-29, in the test on CAKI-1, with HCC 2998, with SNB-75, in the test with TK-10 and in the test with NCI-H226 was > 100 µM (inactive) in each case. Further, the GI50 in the test on A498, in the test on NCI-H460, with RXF 393, with U-251 and with SK-OV-3 was > 100 µM (inactive) each time.

In the case of `COc1ccc(/C=N/Nc2nc(-c3cc4oc(=O)n(C)c4cc3Cl)cs2)cc1OC`, the GI50 in the test on EKVX was 9.51 µM (inactive); in the test on OVCAR-8 it was 36.6 µM (inactive); in the test on SN12C, 17.9 µM (inactive); in the test with DMS-114 it was 5.87 µM (inactive); with SW-620 it was 44.1 µM (inactive); in the test on SF-268, 35.3 µM (inactive). Also, the GI50 was 9.33 µM (inactive) in the test with HT-29; 79.3 µM (inactive) with CAKI-1; 35.6 µM (inactive) in the test with HCC 2998; 28.7 µM (inactive) in the test on SNB-75; > 100 µM (inactive) in the test on SK-MEL-28; 36.7 µM (inactive) with TK-10. Moreover, the GI50 was 20.7 µM (inactive) with NCI-H460, 15.4 µM (inactive) in the test on RXF 393, 15.7 µM (inactive) with U-251 and > 100 µM (inactive) in the test with SK-OV-3.

With `COc1ccc2nc3cc([N+](=O)[O-])ccc3c(NNc3ccc([N+](=O)[O-])cc3)c2c1`, the GI50 is 44.1 µM (inactive) with EKVX; > 58.1 µM (inactive) with OVCAR-8; 31.5 µM (inactive) in the test on SN12C; 9.02 µM (inactive) in the test on SW-620; 54.7 µM (inactive) in the test with SF-268; 7.46 µM (inactive) in the test on HT-29. Further, the GI50 in the test with CAKI-1 was 0.818 µM (active); with HCC 2998, 11.1 µM (inactive); in the test with SNB-75, 67.9 µM (inactive); with NCI/ADR-RES, 61.8 µM (inactive); in the test with SK-MEL-28, 68.2 µM (inactive); with TK-10 it was 2.46 µM (inactive). Further, the GI50 with NCI-H226 was 2.36 µM (inactive); in the test on A498 it was 0.0951 µM (active); in the test with Hs-578T, 55.3 µM (inactive); with NCI-H460, 3.16 µM (inactive); in the test on RXF 393 it was 44.1 µM (inactive); in the test with U-251 it was 20.8 µM (inactive). Moreover, in the test on SK-OV-3, the GI50 was 98.4 µM (inactive).

On to `Cc1ccc(S(=O)(=O)N/N=C(/CC(=O)c2c(C)[n+]([O-])c3ccccc3[n+]2[O-])C(=O)Nc2ccccc2C)cc1`, for which the GI50 in the test on EKVX, with SN12C, in the test with DMS-114, in the test on SW-620, in the test with SF-268 and in the test with HT-29 was > 100 µM (inactive) throughout. Moreover, the GI50 in the test with CAKI-1 was > 100 µM (inactive); with HCC 2998, > 100 µM (inactive); with SNB-75 it was 31.2 µM (inactive); in the test on SK-MEL-28, > 100 µM (inactive); in the test on NCI-H226, > 100 µM (inactive); in the test with A498 it was > 100 µM (inactive). The GI50 with NCI-H460, in the test with RXF 393, in the test with U-251 and with SK-OV-3 was > 100 µM (inactive) throughout.

The GI50 is the concentration at which growth is held to half of that of the control.
